Experimental data published in paper PMC8022858, “Discovery of bone morphogenetic protein 7-derived peptide sequences that attenuate the human osteoarthritic chondrocyte phenotype” (Molecular Therapy. Methods & Clinical Development, 2021).

Experiments:
OA-HACs [1] = assay: ALP activity assay in OA-HAC cultures; format: cell-based, human; conditions: three individual OA-HAC donors, 100 nM peptide, 24 h, normalized to total protein (Figure 2E)
Method: (§1) Figure 2 Bioactivity of BMP7-derived peptides p[63−82] and p[113−132] on OA-HACs Complete peptide library screening quantitative real-time PCR dataset for peptides p[63−82] and p[113−132] is presented. (A) SOX9, COL2A1, and NKX3-2 mRNA expression in the 18 OA-HAC pool exposed to 1,000, 100, 10, or 1 nM of peptide p[63−82] and p[113−132] is shown and presented relative to control (black bars) and alongside full-length BMP7 (white bars). (B) Similar to (A) but for chondrocyte hypertrophy-associated genes RUNX2, COL10A1, and ALPL. (C) Similar to (A) but for cartilage extracellular matrix remodeling-associated genes MMP13 and ADAMTS5 and inflammation-related genes COX-2 and IL-6. […] (G) In the same OA-HAC pool of 18 OA-HAC donors from the peptide library screening, sequence dependency of peptides p[63−82] and p[113−132] was determined by exposing the OA-HAC pool to scrambled versions of peptides p[63−82] and p[113−132] […] Error bars represent mean ± SEM, and statistical significance for peptide conditions or BMP7 versus control condition as determined by unpaired two-tailed Student’s t test is represented as ∗p < 0.05, ∗∗p < 0.01, and ∗∗∗p < 0.001.
Cells were lysed in 1.5 M Tris-HCl (pH 9.0) and 2% (v/v) Triton X-100 and homogenized by sonication (Soniprep 150 MSE). […] Total protein concentration was determined by a BCA assay. […]

OA-HACs [2] = assay: PGE2 EIA in OA-HAC culture supernatant; format: cell-based, human; conditions: three individual OA-HAC donors, 100 nM peptide, 24 h (Figure 2F)
Method: as §1
PGE2 levels were determined in the culture supernatant. PGE2 concentration was determined by a standardized enzyme immunoassay (EIA) according to the manufacturer’s protocol (Cayman Chemical).

[3] = test system: human OA knee cartilage explants; assay: Gene expression in OA cartilage explants; format: cell-based; conditions: n = 7 donors, 24 h, normalized to 28S rRNA, relative to control; BMP7 1 nM (Figure 6A)
Method: To determine whether peptide p[63−82] has the potency to alter chondrocyte behavior in cartilage tissue, rather than isolated HACs, cartilage biopsies from OA knees were cultured in the presence of peptide p[63−82], alongside its scrambled version and full-length BMP7.
Figure 6 Peptide p[63−82] activity on OA knee joint tissues Human OA knee joint tissues were cultured for 24 h in the presence of BMP7, peptide p[63−82], or the scrambled version of peptide p[63−82] and compared to control conditions. (A) Cartilage tissues (n = 7 individual donors) were exposed to shown conditions and analyzed for COL2A1, COL10A1, and COX-2 mRNA expression by quantitative real-time PCR (normalized for 28S rRNA expression and relative to control conditions). (B) GAG release in medium from cartilage tissues (n = 5 individual donors) was determined, and data were calculated relative to the control condition. (C) PGE2 levels in culture supernatant from synovium (n = 5 donors). (D) PGE2 levels in culture supernatant from cartilage tissues from (B) (n = 5 donors). (E) PGE2 levels in culture supernatant from IPFP (n = 5 donors). (F) PGE2 levels in culture supernatant from the meniscus. Synovium, IPFP, and meniscus tissues were from the same 5 donors as the cartilage tissues in (B) and (C). PGE2 levels in conditions were calculated relative to controls for each donor. […] Statistical differences (unpaired two-tailed Student’s t test) were calculated to control condition: ∗p < 0.05, ∗∗p < 0.01, and ∗∗∗p < 0.001.
Cartilage was obtained from total knee arthroplasty of end-stage (K&L grades 3−4) OA patients and from resected knee cartilage from cartilage repair procedures of non-OA patients. […] The bioluminescent readout was performed by lysing cells in Passive Lysis Buffer (Promega) and measuring luciferase activity using the Berthold TriStar^2 LB 942 Modular Multimode Microplate Reader using the Luciferase Assay System for firefly luciferase (BRE and CAGA12) (Promega) and the Gaussia Luciferase Kit (New England Biolabs). […]

alkaline phosphatase (ALP) activity (OA-HACs [1])	Substance	prostaglandin E2 (PGE2) levels in culture supernatant (OA-HACs [2])	COL2A1, COL10A1, and COX-2 mRNA expression in cartilage explants [3]
significant decrease	H-AAYYSEGESAFPLNSYMNAT-OH [p[63−82]]	significant decrease	induce COL2A1 while inhibiting COL10A1 and COX-2 expression
significant decrease	H-SVLYFDDSSNVILKKYRNMV-OH [p[113−132]]	significant decrease	–
–	BMP7: full-length recombinant bone morphogenetic protein 7 (R&D Systems), used at 1 nM	–	comparable
–	H-SEASPAMYYLNATANFYESG-OH [scrambled p[63−82], scrambled version of peptide p[63−82], reference compound]	–	lacked this activity
